In patent publication US20200261391A1, “METHODS OF REDUCING THE RISK OF A CARDIOVASCULAR EVENT IN A STATIN-TREATED SUBJECT BY INCREASING SERUM AND PLASMA EPA AND DPA LEVELS” (Amarin Pharmaceuticals Ireland Limited, priority 2019, published 2020):

Key:
Assay type in all cases: in vivo, human
[1] = system: patients with elevated triglyceride levels on statin therapy; test: REDUCE-IT endpoints by pooled (icosapent ethyl and placebo) EPA blood level tertile
Description: (§1) The objective of this study is to assess the effects of administering icosapent ethyl at 4 g per day to patients from the REDUCE-IT trial of Example 1. More specifically, patients from the REDUCE-IT trial of Example 1 were stratified by their EPA levels into one of three tertiles. Following stratification, the objective was to determine if the RRR differs between patients having EPA levels in the three different tertiles. For the data collected as shown in Tables 38-43 and FIGS. 52, 53, and 56-59, the tertiles were established based on data collected from subjects at 1 year, 2 years, and last visit following icosapent ethyl administration compared to placebo. Data are presented as an average of 1 year, 2 year, […], and end of study values. The data was further analyzed use both pooled and unpooled statistically methods.
(0.84 for lowest vs. placebo, 0.72 for middle vs. placebo, and 0.65 for highest vs. placebo).

[2] = system: patients with elevated triglyceride levels on statin therapy; test: as above; details: FIG. 54; ITT pooled; tertiles ≤31.733, >31.733 to ≤120.175, >120.175 μg/mL
[3] = system: patients with elevated triglyceride levels on statin therapy; test: REDUCE-IT endpoints by pooled (icosapent ethyl and placebo) EPA/AA ratio tertile
Description: as §1
Placebo and icosapent ethyl treated subjects were pooled and stratified based on EPA/AA tertiles with […], […], and the highest […]

[4] = system: patients with elevated triglyceride levels on statin therapy; test: REDUCE-IT endpoints by EPA blood level tertile in the icosapent ethyl group compared to placebo; details: averaged upper EPA tertile vs below the upper tertile
Experimental: To assess the relationship between on-treatment hsCRP and the primary and key secondary endpoints, subgroup analyses were carried out as done for the ITT population for patients grouped according to values greater or equal to or less than […] at baseline and at 2 years. To assess the relationship between on-treatment serum EPA and the primary and key secondary endpoints, Kaplan-Meier (KM) curves were produced for AMR101 treated patients grouped into tertiles based on their values at year 1 and were compared with the placebo-treated patients.
This is a study aimed towards determining a relative risk reduction (RRR) between subjects stratified by EPA tertiles in the REDUCE-IT clinical trial described above in Example 1. Samples were obtained from those subjects and total EPA and AA levels in human serum and plasma samples were determined according at least to the methods described in Example 7.
as §1

[5] = pooled, tertiles ≤31.305, >31.305 to ≤118.1, >118.1 μg/mL
[6] = FIG. 56, ITT pooled, tertiles ≤0.0857, >0.0857 to ≤0.4053, >0.4053
[7] = pooled, tertiles ≤0.084337, >0.084337 to ≤0.395187, >0.395187

## CC/C=C\C/C=C\C/C=C\C/C=C\C/C=C\CCCC(=O)O [EPA, eicosapentaenoic acid]
[1]; FIG. 52, pooled
  primary composite endpoint RRR, highest vs lowest EPA tertile: 43%
  primary composite endpoint RRR, highest vs middle EPA tertile: 30%
  primary composite endpoint RRR, middle vs lowest EPA tertile: 29%
[1]; FIG. 54, ITT pooled, tertiles ≤31.733, >31.733 to ≤120.175, >120.175 μg/mL
  primary composite endpoint HR, middle vs lowest EPA tertile: 0.79
[1]; pooled placebo and icosapent ethyl, tertiles ≤31.305, >31.305 to ≤118.1, >118.1 μg/mL
  primary endpoint HR, highest vs. lowest tertile: 0.65
[1]; [5]
  key secondary endpoint HR, highest vs. lowest tertile: 0.61
  key secondary endpoint HR, highest vs. middle tertile: 0.78
  key secondary endpoint HR, middle vs. lowest tertile: 0.78
  primary endpoint HR, highest vs. middle tertile: 0.80
  primary endpoint HR, middle vs. lowest tertile: 0.81
[2]
  primary composite endpoint HR, high vs lowest EPA tertile: 0.64
[3]; [6]
  primary endpoint HR, highest vs. lowest EPA/AA tertile: 0.63
  primary endpoint HR, middle vs. lowest EPA/AA tertile: 0.79
[3]; [7]
  key secondary endpoint HR, highest vs. lowest EPA/AA tertile: 0.57
  key secondary endpoint HR, highest vs. middle EPA/AA tertile: 0.75
  key secondary endpoint HR, middle vs. lowest EPA/AA tertile: 0.76
  primary endpoint HR, highest vs. lowest EPA/AA tertile: 0.64
  primary endpoint HR, highest vs. middle EPA/AA tertile: 0.84
  primary endpoint HR, middle vs. lowest EPA/AA tertile: 0.77
[4]
  primary endpoint HR, average achieved EPA >181 mg/L vs ≤181 mg/L: 0.842
